Columns and labels:
[1] = Evaluation of pharmacokinetics in vivo (rat); conditions: concentration of Parent Drug A after admin. of the named substance
Protocol: Evaluation of Pharmacokinetics (In Vivo) To evaluate the pharmacokinetics of test substances in vivo, these test substances are dissolved in appropriate formulation vehicles (ethanol, dimethyl sulfoxide, PEG400, glycerol formal etc.), or mixtures thereof. The test substances are then administered to rats or dogs intravenously, orally or subcutaneously. The intravenous application is performed as bolus. Administered doses range usually between 0.1 to 5 mg/kg, however, doses for subcutaneous and oral administration can exceed this range up to doses of 30 mg/kg. Blood samples are retrieved via a catheter, exsanguination or venous puncture in vials containing appropriate anticoagulants, such as lithium heparinate or potassium EDTA. Plasma is generated from the blood via centrifugation. Blood samples are taken over an appropriate time interval, usually lasting up to 144 h after administration. If necessary, samples from later time points can also be taken. If possible, time points are chosen so that the initial absorption phase, the maximum plasma concentration (Cmax), and exposure within a certain time interval (AUC(0-t))aer described. Furthermore, it is possible to also retrieve organ-, tissue- and urine samples. The quantitative measurement of the test substances in the samples is performed using calibration curves in the respective matrices. The protein content of the samples is precipitated using acetonitrile or methanol. Thereafter, the samples are separated using HPLC in combination with reversed phase chromatography columns. The HPLC system is coupled to a triple quadrupole mass spectrometer via an electrospray interface. The evaluation of the plasma concentration/time profiles are afterwards evaluated using a validated pharmacokinetics evaluation program. […] Relative bioavailability (Frel) was used to describe the exposure of parent drug after prodrug administration compared to the exposure of parent drug after direct administration of compound A which was normalised to 100%.

[2] = tested on: Ctenocephalides felis adult; test: Antiparasitic activity after administration to rats: fleas; assay type: in vivo; conditions: 11.97 mg/kg sc, Ctenocephalides felis adult
Summary of the method: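 Compounds dissolved in glycerol formal, given i.p. or s.c. to rats, 5 per group. Infestation with 30 D. variabilis nymphs (days −2, 7, 14, 21, 28, 35) and 30 adult C. felis (days −1, 8, 15, 22, 29, 36), with counts on days 2, 9, 16, 23, 30, 37. Percent efficacy compares mean live attached ticks or live fleas with a placebo-treated group.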

## N#CC1(N(COC(=O)/C=C/C(=O)O)C(=O)c2cc(-c3cnn(-c4c(Cl)cc(C(F)(C(F)(F)F)C(F)(F)F)cc4OC(F)(F)F)c3)ccc2Cl)CC1 [Example 13, (2E)-4-{[(2-Chloro-5-{1-[2-chloro-4-(1,1,1,2,3,3,3-heptafluoropropan-2-yl)-6-(trifluoromethoxy)phenyl]-1H-pyrazol-4-yl}benzoyl)(1-cyanocyclopropyl)amino]methoxy}-4-oxobut-2-enoic acid]
[1]; iv bolus
  AUC(0-144 h)norm of parent drug A: 7.3 kg·h/L
[1]; sc
  AUC(0-144 h)norm of parent drug A: 5.9 kg·h/L
[2]; study day 2
  In-vivo Efficacy SD2: 100%
[2]; study day 9
  In-vivo Efficacy SD9: 97%
[2]; study day 16
  In-vivo Efficacy SD16: 96%
[2]; study day 23
  In-vivo Efficacy SD23: 79%
[2]; study day 30
  In-vivo Efficacy SD30: 57%
[2]; study day 37
  In-vivo Efficacy SD37: 51%

From patent publication US20220306585A1, “PYRAZOLE DERIVATIVES FOR CONTROLLING ARTHROPODS” (Bayer Animal Health GmbH, priority 2019, published 2022)
